These results are taken from patent EP1234575A1, “Furan fatty acids for improving the efficiency of cytostatic and/or radiation therapy” (Deigner, Hans-Peter, Dr., priority 2001, dated 2002).

For series [1], the system named is Nierenkarzinomzelllinie (RENCA). The experiment in a line: Apoptosis in RENCA renal carcinoma cells: FFS alone or 2 h FFS pre-incubation followed by a cytostatic (YO-PRO-1 positive cells, DNA laddering). It is filed as cell-based. As to conditions: for Zahl apoptotischer Zellen bei 50 nM relativ zu 100 nM: 50 nM FFS versus 100 nM FFS, plus Daunorubicin; for Zahl apoptotischer Zellen bei 50 nM relativ zu 100 nM / höhere Anzahl apoptotischer Zellen im Vergleich zur Kontrolle mit Daunorubicin alleine / Konzentrationsabhängigkeit des prozentualen Anteils apoptotischer Zellen: Renca-Zellen; for höhere Anzahl apoptotischer Zellen im Vergleich zur Kontrolle mit Daunorubicin alleine: 1000 nM FFS plus Daunorubicin (1 µM per Figur 3); for Konzentrationsabhängigkeit des prozentualen Anteils apoptotischer Zellen: FFS 0 to 1000 nM plus Daunorubicin. The source says:
(§1) Untersuchungen der pro- bzw. antiapoptotischen Wirkung der FFS wurden an einer Nierenkarzinomzelllinie (RENCA; Murphy et al., J. Natl. Cancer Inst. 50: 1013, 1973) durchgeführt. Dazu wurden die Zellen 22 Stunden zum einen mit einem Zytostatikum, zum anderen mit der entsprechenden FFS sowie einer Kontrolle und einer Kombination aus FFS und Zytostatikum inkubiert. Für die Substanzkombination aus FFS und Zytostatikum wurden die Zellen zwei Stunden mit der jeweiligen FFS vorinkubiert, anschließend das Zytostatikum zugegeben und danach für 24 Stunden im Brutschrank inkubiert. Die verwendeten Konzentrationen sind in Figur 3 angegeben. Diese Untersuchungen wurden mit den Verbindungen 11a/11b, 12b, 6b, 13b und 14 sowie jeweils für jedes Zytostatikum getrennt durchgeführt. Es zeigte sich bei keiner der getesteten FFS (alleinige Zugabe) eine signifikante Zunahme der Zahl apoptotischer Zellen gegenüber der Kontrolle. Bei Inkubation der Zellen mit einer FFS und anschließender Zytostatikumgabe konnten unterschiedliche Effekte beobachtet werden .
Bei den alkin-substituierten FFS wurde bei Verwendung von Daunorubicin in Kombination mit 11a eine Zunahme von 60% und in Kombination mit 11b eine Abnahme der Anzahl apoptotischer Zellen gemessen. Bei Verwendung von Vinblastin als Zytostatikum nahm bei beiden FFS 11a und 11b die Zahl apoptotischer Zellen von 60% bzw. 160% zu.
(§2) Da die FFS 11a und 11b als einzige aller synthetisierten FFS eine signifikante Zunahme an apoptotischen Zellen bei Inkubation in Kombination mit einem Zytostatikum zeigten, wurde untersucht, ob dieser Effekt von der Konzentration der FFS abhängt. Daher wurde das oben beschriebene Experiment an Renca-Zellen unter den gleichen Bedingungen, aber mit jeweils verschiedenen Konzentrationen von 11a bzw. 11b im Bereich von 0 bis 1000 nM durchgeführt (Figur 3). […] Der prozentuale Anteil apoptotischer Zellen nahm mit steigender FFS Konzentration zu und mit fallender ab. Bei Inkubation mit einer 1000 nM-Lösung wurde eine 6.1 bzw. 5.2-fach höhere Anzahl apoptotischer Zellen im Vergleich zur Kontrolle mit Daunorubicin alleine festgestellt. […] Bei Inkubation der Zellen mit FFS ohne Zytostatikum wurden auch bei hoher FFS Konzentration keine signifikante Zu- bzw. Abnahme der Apoptoserate festgestellt. Die Apoptoserate wurde routinemäßig durch Messung YO-PRO-1 positiver Zellen^5,6 DNA-Leiter-Untersuchungen ("DNA-laddering") ermittelt.

A further series relates to Morris-Hepatom. In words: Apoptosis in Morris hepatoma cells: FFS alone or FFS pre-incubation followed by a cytostatic. It is filed as cell-based, Ratte.
Source text: as §1
Aufgrund dieser Effekte wurde mit den alkin-substituierten FFS 11a und 11b an einer weiteren Karzinomzelllinie (Morris-Hepatom; Tumorbank DKFZ Heidelberg, TZB No. 620143, MH TC 5123, histologischer Typ: Hepatom, Herkunft/Spezies: Ratte, Buffalo) die oben beschriebenen Untersuchungen durchgeführt. Die Konzentrationen der verwendeten FFS bzw. Zytostatika sind in Figur 4 angegeben. FFS alleine zeigten auch hier keine Effekte. Bei einer Kombination aus Daunorubicin mit der FFS 11a bzw. 11b stieg die Zahl apoptotischer Zellen um 130% bzw. 60% und bei einer Kombination FFS 11a bzw. 11b mit Vinblastin um 85% bzw. 50% .
as §2

Where [2] appears, read: 2 h FFS pre-incubation, then Daunorubicin, 24 h, RENCA.
Where [3] appears, read: 2 h FFS pre-incubation, then Vinblastin, 24 h, RENCA.

Consider `CCC(=O)/C=C/c1ccc(CCCCCCCCCCC(=O)OC)o1` [6b, 11-[5(3-Oxo-pentenyl)-furan-2-yl]-undecansäure-methylester], for which the “Anzahl apoptotischer Zellen (change, in words)” value in series [1] (setting [2]) and in series [1] (setting [3]) was “leichter Rückgang” each time.
As to `COC(=O)CCCCCCCCC#Cc1ccc(/C=C/C(C)=O)o1` [11a, 11-[5-(3-Oxo-1-butenyl)-furan-2-yl]-10-undecinsäuremethylester], the “Anstieg der Zahl apoptotischer Zellen” value with Morris-Hepatom (FFS combined with Daunorubicin) worked out at 130%. In the series on Morris-Hepatom (FFS combined with Vinblastin), the “Anstieg der Zahl apoptotischer Zellen” value was determined as 85%. In addition, in series [1], the “Zahl apoptotischer Zellen bei 50 nM relativ zu 100 nM” value is recorded as “ca. halb so groß”, the “höhere Anzahl apoptotischer Zellen im Vergleich zur Kontrolle mit Daunorubicin alleine” value stood at 6.1 fach and the “Konzentrationsabhängigkeit des prozentualen Anteils apoptotischer Zellen” value was “deutliche Konzentrationsabhängigkeit”. The “Zunahme der Anzahl apoptotischer Zellen” value in series [1] (setting [2]) was 60%. In addition, the “Zunahme der Zahl apoptotischer Zellen” value in series [1] (setting [3]) came to 60%.
As for `CCC(=O)/C=C/c1ccc(C#CCCCCCCCCC(=O)OC)o1` [11b, 11-[5-(3-Oxo-1-pentenyl)-furan-2-yl]-10-undecinsäure-methylester], the “Anstieg der Zahl apoptotischer Zellen” value in the series on Morris-Hepatom (FFS combined with Daunorubicin) is recorded as 60%. Also, in the series on Morris-Hepatom (FFS combined with Vinblastin), the “Anstieg der Zahl apoptotischer Zellen” value stood at 50%. Moreover, in series [1], the “Zahl apoptotischer Zellen bei 50 nM relativ zu 100 nM” value is listed as “ca. halb so groß”, the “höhere Anzahl apoptotischer Zellen im Vergleich zur Kontrolle mit Daunorubicin alleine” value is recorded as 5.2 fach and the “Konzentrationsabhängigkeit des prozentualen Anteils apoptotischer Zellen” value was “deutliche Konzentrationsabhängigkeit”. For the same molecule, in series [1] (setting [2]), the “Anzahl apoptotischer Zellen (change, in words)” value is “Abnahme”. In series [1] (setting [3]), the “Zunahme der Zahl apoptotischer Zellen” value is 160%.
For the molecule `CCC(=O)/C=C/c1ccc(/C=C\CCCCCCCCC(=O)OC)o1` [12b], the “Anzahl apoptotischer Zellen (change, in words)” value in series [1] (setting [2]) and in series [1] (setting [3]) was “leichter Rückgang” in each case.
As for `CCC(=O)CCc1ccc(CCCCCCCCCCC(=O)OC)o1` [13b, 11-[5(3-Oxo-pentyl)-furan-2-yl]-undecansäure-methylester], the “Anzahl apoptotischer Zellen (change, in words)” value in series [1] (setting [2]) and in series [1] (setting [3]) was “leichter Rückgang” in each case.
